Data published in patent publication US8569450B2, “CD3 epsilon immunogens and antibodies” (Health Research Inc., priority 2010, dated 2013).

System: anti-human detection antibody
Assay: CD3ε peptide ELISA, alkaline phosphatase based, peptides coated on Costar high binding plates
Set-up: species or system chicken
Conditions: single peptide coated on plate, plate blank subtracted, both peptides tested under the same conditions
Description: The capture antibody of the CDR assay was produce by inoculation with 2 peptides. The sequence of these two peptides is AKAKPVTRGAGA (SEQ ID NO: 1) and LYSGLNQRRI (SEQ ID NO: 2) respectively. To determine the key immune-dominate region of the peptide, 12 variants of original peptide 1 (SEQ ID NO: 1) and 10 variants of original peptide 2 (SEQ ID NO: 2) were made with alanine substitution (or valine when alanine is the original amino acid). These were produced by GenScript, shipped, in solid form, at room temperature, to our lab and were dissolved in 1 ml of 0.05 TBS buffer.
Single peptides were coated on to Costar high binding 96 well plates at a concentration of 10 μg and 2 μg in 0.05 TBS buffer pH 7.4 in quadruplicate and tested in an alkaline phoshotase based ELISA. Plate blanks were subtracted from the optical densities obtained for each peptide. The peptides are compared to the original by percent of original signal. As noted in Table 1 the twelfth substitution was both an alanine at position twelve and a glutamic acid for threonine at position seven. This was an inadvertent oversight by the manufacturer.
The results from using a coating concentration of 2 μg/ml were similar.
The OD for original peptide 1 (SEQ ID NO: 1) was 1.5 and peptide 2 (SEQ ID NO: 2) elicited a signal of 1.0 when tested under the same conditions.

OD (optical density) by ELISA	Sequence
1.5	AKAKPVTRGAGA (listed as Homo sapiens) [original peptide 1, CD3 epsilon immunogen peptide, 12AA]
1.0	LYSGLNQRRI (listed as Homo sapiens) [peptide 2, CD3 epsilon immunogen peptide, 10AA]
